Reference: ChEMBL document CHEMBL3272060, “Selective inhibition of the monosynaptic spinal reflex by a series of hydroxylated alkylaminoindans” (J Med Chem, 1977)

Key:
[1] = system: Felis catus; assay: Inhibition of electrical stimulation-induced polysynaptic spinal reflex response in unanesthetized decerebrated cat spinal cord segment at 5 mg/kg, iv relative to control; format: functional
[2] = system: Felis catus; assay: Toxicity in cat assessed as motor deficit at 2 to 4 mg/kg, iv; format: organism-based; parameters: dose 2-4 mg/kg, route intravenous; settings: in vivo
[3] = system: Felis catus; assay: Toxicity in cat assessed as motor deficit at 10 mg/kg, po; format: organism-based; parameters: dose 10 mg/kg, route oral; settings: in vivo
[4] = system: Felis catus; assay: Inhibition of electrical stimulation-induced monosynaptic spinal reflex response in unanesthetized decerebrated cat spinal cord segment at 5 mg/kg, iv relative to control; format: functional
[5] = system: Felis catus; assay: Inhibition of electrical stimulation-induced monosynaptic spinal reflex response in unanesthetized decerebrated cat spinal cord segment assessed as duration at 5 mg/kg, iv; format: functional
[6] = system: Felis catus; assay: Induction of electrical stimulation-induced monosynaptic spinal reflex response in unanesthetized decerebrated cat spinal cord segment at 5 mg/kg, iv relative to control; format: functional
[7] = system: Felis catus; assay: Inhibition of electrical stimulation-induced monosynaptic spinal reflex response in unanesthetized decerebrated cat spinal cord segment assessed as duration at 2 mg/kg, iv; format: functional
[8] = system: Felis catus; assay: Inhibition of electrical stimulation-induced monosynaptic spinal reflex response in unanesthetized decerebrated cat spinal cord segment assessed as duration at 10 mg/kg, iv; format: functional
[9] = system: Felis catus; assay: Inhibition of electrical stimulation-induced polysynaptic spinal reflex response in unanesthetized decerebrated cat spinal cord segment at 2 mg/kg, iv relative to control; format: functional
[10] = system: Felis catus; assay: Inhibition of electrical stimulation-induced polysynaptic spinal reflex response in unanesthetized decerebrated cat spinal cord segment at 10 mg/kg, iv relative to control; format: functional
[11] = system: Felis catus; assay: Inhibition of electrical stimulation-induced monosynaptic spinal reflex response in unanesthetized decerebrated cat spinal cord segment at 2 mg/kg, iv relative to control; format: functional
[12] = system: Felis catus; assay: Inhibition of electrical stimulation-induced monosynaptic spinal reflex response in unanesthetized decerebrated cat spinal cord segment at 10 mg/kg, iv relative to control; format: functional
[13] = system: Felis catus; assay: Inhibition of electrical stimulation-induced polysynaptic spinal reflex response in unanesthetized decerebrated cat spinal cord segment assessed as duration at 5 mg/kg, iv; format: functional
[14] = system: Felis catus; assay: Induction of electrical stimulation-induced monosynaptic spinal reflex response in unanesthetized decerebrated cat spinal cord segment assessed as duration at 5 mg/kg, iv; format: functional

Row | SMILES | inhibition in vivo at 5 mg/kg [1] | Activity [2] | Activity [3] | inhibition in vivo at 5 mg/kg [4] | Time [5] | other results
1 | CCCCN(Cc1ccccc1)C1CC2=C(CC(O)CC2)C1.Cl (stereo not given) | 0% | Non-toxic | Non-toxic | 20% | 1 h | –
2 | OC1CCC2=C(C1)CC(NC1CCCCC1)C2 (stereo not given) | 0% | – | – | 0% | – | –
3 | O[C@H]1CC2=C(CC(N3CCCCC3)C2)C[C@@H]1O (relative stereo) | 0% | Non-toxic | Non-toxic | 50% | 0.25 h | –
4 | Oc1ccc2c(c1)CC(N1CCCCC1)C2 (stereo not given) | 0% | Non-toxic | Non-toxic | > 80% | <0.25 h | –
5 | O[C@@H]1CC2=C(CC(CN3CCCCC3)C2)C[C@H]1O (relative stereo) | 0% | Non-toxic | Non-toxic | 20% | 0 h | –
6 | CN(C)C1CC2=C(C1)C[C@H](O)[C@H](O)C2 (stereo not given in full) | 0% | Non-toxic | Non-toxic | – | – | inhibition in vivo at 5 mg/kg [6]: 0%
7 | CC(=O)O[C@H]1CC2=C(CC(N3CCCCC3)C2)C[C@H]1OC(C)=O (stereo not given in full) | 0% | Non-toxic | Non-toxic | 50% | >2 h | –
8 | OC1CCC2=C(C1)CC(N1CCCCC1)C2 (mixture of isomers; 5) | – | Non-toxic | Non-toxic | – | – | Time [7]: 1 h; Time [8]: >2 h; inhibition in vivo at 2 mg/kg [9]: 0%; inhibition in vivo at 10 mg/kg [10]: 0%; inhibition (INH) [11]: >80%; inhibition in vivo at 10 mg/kg [12]: > 80%
9 | O[C@@H]1CC2=C(CC(N3CCCCC3)C2)C[C@@H]1O (stereo not given in full) | 0% | Non-toxic | Non-toxic | 0% | <0.25 h | –
10 | Cl.OC1CCC2=C(C1)CC(CCN1CCCCC1)C2 (stereo not given) | 0% | Non-toxic | Non-toxic | 20% | 0.25 h | –
11 | O[C@@H]1CC2=C(CC(CN3CCCCC3)C2)C[C@@H]1O (stereo not given in full) | 0% | – | – | 0% | – | –
12 | CC(=O)O[C@@H]1CC2=C(CC(CN3CCCCC3)C2)C[C@H]1OC(C)=O.Cc1ccc(S(=O)(=O)O)cc1 (relative stereo) | 0% | Non-toxic | Non-toxic | 20% | <0.25 h | –
13 | CCCCNC1CC2=C(CC(O)CC2)C1 (stereo not given) | 0% | – | – | 0% | – | –
14 | O[C@@H]1CC2CC(CN3CCCCC3)CC2C[C@@H]1O (stereo not given in full) | 0% | – | – | 0% | – | –
15 | CN1CC2=C(C[C@H](O)[C@H](O)C2)C1 | 0% | Non-toxic | Non-toxic | 0% | – | –
16 | O[C@]12CC=CC[C@]1(O)CC(N1CCCCC1)C2 (relative stereo) | – | Non-toxic | Non-toxic | – | – | Time [13]: <15 min; inhibition in vivo at 5 mg/kg [6]: 0%; Time [14]: <15 min
17 | COc1cc(C(=O)OC2CCC3=C(C2)CC(N2CCCCC2)C3)cc(OC)c1OC (stereo not given) | 0% | – | – | 0% | – | –
18 | OC1CCC2=C(C1)CC(N1CCCC1)C2 (stereo not given) | 0% | Non-toxic | Non-toxic | 20% | 0.25 h | Time [13]: <15 min

Row | SMILES | inhibition in vivo at 5 mg/kg [1] | Activity [2] | Activity [3] | inhibition in vivo at 5 mg/kg [4] | Time [5] | other results
19 | CC(=O)O[C@@H]1CC2=C(CC(N3CCCCC3)C2)C[C@H]1OC(C)=O (relative stereo) | 0% | – | – | 0% | – | –
20 | OC1CCC2=C(C1)CC(N1CCCCC1)C2 (mixture of isomers; 6) | – | – | – | – | – | Time [7]: 0.25 h; inhibition (INH) [11]: 50%
21 | Cl.OC1CCC2=C(C1)CC(CN1CCCCC1)C2 (stereo not given) | 0% | Non-toxic | Non-toxic | 0% | 0.25 h | –
22 | CN(C)CCCC1CC[C@@]2(O)CC=CC[C@]12O (stereo not given in full) | 0% | Non-toxic | Non-toxic | 0% | – | –
23 | CC(=O)O[C@H]1CC2=C(CCC(N3CCCCC3)C2)C[C@H]1OC(C)=O (relative stereo) | 0% | – | – | 0% | – | –
24 | CC(=O)O[C@H]1CC2=C(CC(N(C)C)C2)C[C@@H]1OC(C)=O (relative stereo) | 0% | – | – | 0% | – | –
25 | OC1CCC2=C(C1)CC(N1CCCCC1)C2 (stereo in doubt; 7) | – | – | – | – | – | Time [7]: >2 h
26 | OC1CCC2=C(C1)CN(C1CCCCC1)C2 (stereo not given) | 0% | Non-toxic | Non-toxic | 0% | <0.25 h | –
27 | CC(=O)O[C@H]1CC2=C(CC(N(C)C)C2)C[C@H]1OC(C)=O.Cc1ccc(S(=O)(=O)O)cc1 (stereo not given in full) | 0% | Non-toxic | Non-toxic | 0% | 1 h | –
28 | OC1CC=C(CCN2CCCCC2)CC1O (stereo not given) | 0% | – | – | 0% | – | –
29 | O[C@@H]1CC2=C(CC(N3CCCCC3)C2)C[C@H]1Oc1ccccc1 (relative stereo) | 0% | Non-toxic | Non-toxic | 20% | <0.25 h | –
30 | CN1CC2=C(C[C@H](O)[C@@H](O)C2)C1 (relative stereo) | 0% | Non-toxic | Non-toxic | 0% | <0.25 h | –
31 | CC(=O)O[C@H]1CC2=C(C[C@@H]1OC(C)=O)CN(C)C2 | 0% | – | – | 0% | – | –
32 | CN(C)CCCC1C2=C(CC=CC2)CCC1O (stereo not given) | 0% | – | – | 0% | – | –
33 | CC(=O)OC1CC=C(CCN2CCCCC2)CC1OC(C)=O (stereo not given) | 0% | – | – | 0% | – | –
34 | Br.OC1CC2=C(CC=CC2)C1CCCN1CCCCC1 (stereo not given) | 0% | Non-toxic | Non-toxic | 20% | 1 h | –
35 | O[C@@H]1CC2=C(CC(N3CCCCC3)CC2)C[C@@H]1O (relative stereo) | 0% | – | – | 0% | – | –
